IC50 data for 23 molecules are collected here from patent US8772343B2, “Chemical compounds” (Pfizer Limited, priority 2010, dated 2014).

Structures are written as SMILES. Counter-ions that a name gives are not always drawn. A value given as a limit tells only on which side of the number the result lay.

T1 sequence (Q15858 whole entry): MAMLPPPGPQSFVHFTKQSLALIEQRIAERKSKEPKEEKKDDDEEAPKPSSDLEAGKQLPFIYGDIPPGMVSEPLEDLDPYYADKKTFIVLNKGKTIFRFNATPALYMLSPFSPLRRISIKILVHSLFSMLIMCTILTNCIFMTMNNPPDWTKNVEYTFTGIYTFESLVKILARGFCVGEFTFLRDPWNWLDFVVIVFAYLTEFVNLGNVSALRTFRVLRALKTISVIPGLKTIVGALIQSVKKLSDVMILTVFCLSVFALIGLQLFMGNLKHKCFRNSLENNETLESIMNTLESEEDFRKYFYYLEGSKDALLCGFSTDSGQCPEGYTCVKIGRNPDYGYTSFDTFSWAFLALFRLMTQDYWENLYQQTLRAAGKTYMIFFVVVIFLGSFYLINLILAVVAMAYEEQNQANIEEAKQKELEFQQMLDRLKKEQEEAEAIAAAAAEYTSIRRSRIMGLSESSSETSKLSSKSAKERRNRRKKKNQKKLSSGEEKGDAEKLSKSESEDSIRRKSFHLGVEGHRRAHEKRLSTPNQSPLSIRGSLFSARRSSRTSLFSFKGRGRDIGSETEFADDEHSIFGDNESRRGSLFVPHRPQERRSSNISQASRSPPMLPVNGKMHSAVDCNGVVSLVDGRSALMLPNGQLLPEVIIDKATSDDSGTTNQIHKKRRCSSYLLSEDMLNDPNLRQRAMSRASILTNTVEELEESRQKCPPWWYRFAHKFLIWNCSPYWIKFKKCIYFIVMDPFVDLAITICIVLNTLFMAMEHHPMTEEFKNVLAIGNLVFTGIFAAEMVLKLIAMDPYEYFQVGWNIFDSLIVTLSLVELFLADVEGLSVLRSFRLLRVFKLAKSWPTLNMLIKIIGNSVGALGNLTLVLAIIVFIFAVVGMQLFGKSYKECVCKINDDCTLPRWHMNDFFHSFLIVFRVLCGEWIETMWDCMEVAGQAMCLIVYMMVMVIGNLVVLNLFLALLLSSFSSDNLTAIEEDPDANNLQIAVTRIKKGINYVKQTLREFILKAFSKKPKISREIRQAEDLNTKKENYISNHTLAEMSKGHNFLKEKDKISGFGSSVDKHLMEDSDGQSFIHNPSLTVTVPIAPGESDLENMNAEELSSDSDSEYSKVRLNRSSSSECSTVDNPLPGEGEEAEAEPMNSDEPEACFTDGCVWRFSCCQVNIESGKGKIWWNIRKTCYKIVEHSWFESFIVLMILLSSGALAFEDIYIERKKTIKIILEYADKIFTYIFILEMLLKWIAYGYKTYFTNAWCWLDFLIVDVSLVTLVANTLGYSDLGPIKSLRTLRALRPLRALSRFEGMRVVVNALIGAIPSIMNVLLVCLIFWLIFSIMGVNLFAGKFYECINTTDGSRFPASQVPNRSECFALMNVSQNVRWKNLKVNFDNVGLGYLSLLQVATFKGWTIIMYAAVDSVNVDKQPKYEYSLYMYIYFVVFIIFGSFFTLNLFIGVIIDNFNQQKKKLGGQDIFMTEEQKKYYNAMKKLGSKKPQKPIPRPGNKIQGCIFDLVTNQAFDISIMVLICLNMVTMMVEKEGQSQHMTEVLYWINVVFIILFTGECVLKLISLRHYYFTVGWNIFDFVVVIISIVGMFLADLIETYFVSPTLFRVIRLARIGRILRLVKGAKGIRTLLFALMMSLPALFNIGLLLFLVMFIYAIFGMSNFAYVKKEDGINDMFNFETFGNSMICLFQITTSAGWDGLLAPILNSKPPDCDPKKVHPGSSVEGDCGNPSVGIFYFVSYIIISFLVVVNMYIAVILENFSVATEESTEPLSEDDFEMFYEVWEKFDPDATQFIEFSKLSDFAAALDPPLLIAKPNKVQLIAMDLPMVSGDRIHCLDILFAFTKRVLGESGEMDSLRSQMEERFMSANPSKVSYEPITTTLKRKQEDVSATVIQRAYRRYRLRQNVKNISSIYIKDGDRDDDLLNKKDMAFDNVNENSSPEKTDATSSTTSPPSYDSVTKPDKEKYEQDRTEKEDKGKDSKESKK

This experiment has as its target T1, Nav1.7 (or SCN9A) channel (Homo sapiens, UniProt Q15858).
T1 construct: expressed in transfected cells
Nature of the experiment: Nav1.7 PatchXpress automated whole-cell electrophysiology in HEK cells expressing hSCN9A. Type of experiment: cell-based. The note with it: estimated IC50 from single point data, PatchXpress assay, held at V1/2 of inactivation, read-out: Nav1.7 EIC50. As to the method:
The ability of the compounds of formula (I) to block the Nav1.7 (or SCN9A) channel were measured using the assay described below.
Human Embryonic Kidney (HEK) cells were transfected with an hSCN9A construct using lipofectamine reagent (Invitrogen), using standard techniques. Cells stably expressing the hSCN9A constructs were identified by their resistance to G-418 (400 μg/ml). Clones were screened for expression using the whole-cell voltage-clamp technique.
HEK cells stably transfected with hSCN9A were maintained in DMEM medium supplemented with 10% heat-inactivated fetal bovine serum and 400 μg/ml G-418 in an incubator at 37° C. with a humidified atmosphere of 10% CO2. For HTS, cells were harvested from flasks by trypsinization and replated in an appropriate multi-well plate (typically 96 or 384 wells/plate) such that confluence would be achieved within 24 hours of plating. For electrophysiological studies, cells were removed from the culture flask by brief trypsinization and re-plated at low density onto glass cover slips. Cells were typically used for electrophysiological experiments within 24 to 72 hours after plating.
Cover slips containing HEK cells expressing hSCN9A were placed in a bath on the stage of an inverted microscope and perfused (approximately 1 ml/minutes) with extracellular solution of the following composition: 138 mM NaCl, 2 mM CaCl2, 5.4 mM KCl, 1 mM MgCl2, 10 mM glucose, and 10 mM HEPES, pH 7.4, with NaOH. […] The osmolarity of the extracellular and intracellular solutions was 300 mOsm/kg and 295 mOsm/kg, respectively. All recordings were made at room temperature (22-24° C.) using AXOPATCH 200B amplifiers and PCLAMP software (Axon Instruments, Burlingame, Calif.).
hSCN9A currents in HEK cells were measured using the whole-cell configuration of the patch-clamp technique (Hamill et al., 1981). Uncompensated series resistance was typically 2 to 5 mega ohms and >85% series resistance compensation was routinely achieved. As a result, voltage errors were negligible and no correction was applied. Current records were acquired at 20 to 50 KHz and filtered at 5 to 10 KHz.
HEK cells stably transfected with hSCN9A were viewed under Hoffman contrast optics and placed in front of an array of flow pipes emitting either control or compound-containing extracellular solutions. All compounds were dissolved in dimethyl sulfoxide to make 10 mM stock solutions, which were then diluted into extracellular solution to attain the final concentrations desired. […] The voltage-dependence of inactivation was determined by applying a series of depolarizing prepulses (8 sec long in 10 mV increments) from a negative holding potential. The voltage was then immediately stepped to 0 mV to assess the magnitude of the sodium current. Currents elicited at 0 mV were plotted as a function of prepulse potential to allow estimation of the voltage at which 50% of the channels were inactivated (midpoint of inactivation or V1/2). Compounds were tested for their ability to inhibit hSCN9A sodium channels by activating the channel with a 20 msec voltage step to 0 mV following an 8 second conditioning prepulse to the empirically determined V1/2. Compound effect (% inhibition) was determined by difference in current amplitude before and after application of test compounds. For ease of comparison, “estimated IC-50” (EIC50) values were calculated from single point electrophysiology data by the following equation, (tested concentration, uM)×(100-% inhibition/% inhibition). Inhibition values<20% and >80% were excluded from the calculation.
Electrophysiological assays were conducted with PatchXpress 7000 hardware and associated software (Molecular Devices Corp). All assay buffers and solutions were identical to those used in conventional whole-cell voltage clamp experiments described above. hSCN9A cells were grown as above to 50%-80% confluency and harvested by trypsinization. […]
Take `COc1ncccc1-c1cc(C(=O)NS(C)(=O)=O)ccc1Oc1ccc(C)cc1` [Example 73, 3-(2-methoxypyridin-3-yl)-4-(4-methylphenoxy)-N-(methylsulfonyl)benzamide]: the IC50 was 170 nM. As for `COc1ncccc1-c1cc(C(=O)NS(C)(=O)=O)ccc1Oc1cccc(F)c1F` [Example 74, 4-(2,3-difluorophenoxy)-3-(2-methoxypyridin-3-yl)-N-(methylsulfonyl)benzamide], the IC50 was 1900 nM. For the molecule `COc1ccc(Oc2ccc(C(=O)NS(C)(=O)=O)cc2-c2cccnc2OC)cc1Cl` [Example 75, 4-(3-chloro-4-methoxyphenoxy)-3-(2-methoxypyridin-3-yl)-N-(methylsulfonyl)benzamide], the IC50 was 310 nM. The figure for `COc1ncccc1-c1cc(C(=O)NS(C)(=O)=O)ccc1Oc1ccc(Cl)cn1` [Example 76, 4-[(5-chloropyridin-2-yl)oxy]-3-(2-methoxypyridin-3-yl)-N-(methylsulfonyl)benzamide] is above 1000 nM.

With `CCc1ccc(Oc2ccc(C(=O)NS(C)(=O)=O)cc2-c2cccnc2OC)cc1` [Example 77, 4-(4-ethylphenoxy)-3-(2-methoxypyridin-3-yl)-N-(methylsulfonyl)benzamide], the IC50 is below 1000 nM. The figure for `COc1ncccc1-c1cc(C(=O)NS(C)(=O)=O)ccc1Oc1ccc(F)c(C(F)(F)F)c1` [Example 78, 4-[4-fluoro-3-(trifluoromethyl)phenoxy]-3-(2-methoxypyridin-3-yl)-N-(methylsulfonyl)benzamide] is 150 nM; for `COc1ccc(Oc2ccc(C(=O)NS(C)(=O)=O)cc2-c2cccnc2OC)c(F)c1` [Example 79, 4-(2-fluoro-4-methoxyphenoxy)-3-(2-methoxypyridin-3-yl)-N-(methylsulfonyl)benzamide] it is 2400 nM. Consider `CCc1ccccc1Oc1ccc(C(=O)NS(C)(=O)=O)cc1-c1cccnc1OC` [Example 80, 4-(2-ethylphenoxy)-3-(2-methoxypyridin-3-yl)-N-(methylsulfonyl)benzamide], for which the IC50 is above 1000 nM. `COc1ncccc1-c1cc(C(=O)NS(C)(=O)=O)ccc1Oc1cccc(C(F)(F)F)c1F` [Example 81, 4-[2-fluoro-3-(trifluoromethyl)phenoxy]-3-(2-methoxypyridin-3-yl)-N-(methylsulfonyl)benzamide]: the IC50 is 1100 nM. Regarding `COc1ncccc1-c1cc(C(=O)NS(C)(=O)=O)ccc1Oc1ccccc1C(F)(F)F` [Example 82, 3-(2-methoxypyridin-3-yl)-N-(methylsulfonyl)-4-[2-(trifluoromethyl)phenoxy]benzamide], the IC50 is above 1000 nM. For `CCOc1ccc(Oc2ccc(C(=O)NS(C)(=O)=O)cc2-c2cccnc2OC)cc1` [Example 83, 4-(4-ethoxyphenoxy)-3-(2-methoxypyridin-3-yl)-N-(methylsulfonyl)benzamide], the IC50 is 490 nM. The figure for `CCOc1cccc(Oc2ccc(C(=O)NS(C)(=O)=O)cc2-c2cccnc2OC)c1` [Example 84, 4-(3-ethoxyphenoxy)-3-(2-methoxypyridin-3-yl)-N-(methylsulfonyl)benzamide] is 490 nM; for `COc1cccc(Oc2ccc(C(=O)NS(C)(=O)=O)cc2-c2cccnc2OC)c1` [Example 85, 4-(3-methoxyphenoxy)-3-(2-methoxypyridin-3-yl)-N-(methylsulfonyl)benzamide] it is 640 nM; for `COc1ncccc1-c1cc(C(=O)NS(C)(=O)=O)ccc1Oc1ccc(F)cc1F` [Example 86, 4-(2,4-difluorophenoxy)-3-(2-methoxypyridin-3-yl)-N-(methylsulfonyl)benzamide] it is 1100 nM. Take `COc1ncccc1-c1cc(C(=O)NS(C)(=O)=O)ccc1Oc1ccc(C(F)(F)F)cc1` [Example 87, 3-(2-methoxypyridin-3-yl)-N-(methylsulfonyl)-4-[4-(trifluoromethyl)phenoxy]benzamide]: the IC50 is 86 nM.

As for `COc1ncccc1-c1cc(C(=O)NS(C)(=O)=O)ccc1Oc1ccc(C#N)c(Cl)c1` [Example 88, 4-(3-chloro-4-cyanophenoxy)-3-(2-methoxypyridin-3-yl)-N-(methylsulfonyl)benzamide], the IC50 was 2500 nM.

In the case of `CCc1cccc(Oc2ccc(C(=O)NS(C)(=O)=O)cc2-c2cccnc2OC)c1` [Example 89, 4-(3-ethylphenoxy)-3-(2-methoxypyridin-3-yl)-N-(methylsulfonyl)benzamide], the IC50 was 160 nM. With `COc1ncccc1-c1cc(C(=O)NS(C)(=O)=O)ccc1Oc1cncc(Cl)c1` [Example 90, 4-[(5-chloropyridin-3-yl)oxy]-3-(2-methoxypyridin-3-yl)-N-(methylsulfonyl)benzamide], the IC50 is 1400 nM. On to `COc1ncccc1-c1cc(C(=O)NS(C)(=O)=O)ccc1Oc1ccc(F)cc1` [Example 91, 4-(4-fluorophenoxy)-3-(2-methoxypyridin-3-yl)-N-(methylsulfonyl)benzamide], for which the IC50 was 680 nM. Then `COc1ncccc1-c1cc(C(=O)NS(C)(=O)=O)ccc1Oc1ccc(C(C)C)cc1` [Example 92, 4-(4-isopropylphenoxy)-3-(2-methoxypyridin-3-yl)-N-(methylsulfonyl)benzamide], with 38 nM; and `COc1ncccc1-c1cc(C(=O)NS(C)(=O)=O)ccc1Oc1ccc(OC(F)(F)F)cc1` [Example 93, 3-(2-methoxypyridin-3-yl)-N-(methylsulfonyl)-4-[4-(trifluoromethoxy)phenoxy]benzamide], with 66 nM.

Consider `COc1ncccc1-c1cc(C(=O)NS(C)(=O)=O)ccc1Oc1cnc(C2CC2)c(Cl)c1` [Example 94, 4-(5-chloro-6-cyclopropylpyridin-3-yloxy)-3-(2-methoxypyridin-3-yl)-N-(methylsulfonyl)benzamide], for which the IC50 is 400 nM. Regarding `CCc1cc(Oc2ccc(C(=O)NS(C)(=O)=O)cc2-c2ccn[nH]2)ccc1Cl` [Example 95, 4-(4-chloro-3-ethylphenoxy)-N-(methylsulfonyl)-3-(1H-pyrazol-5-yl)benzamide hydrochloride salt], the IC50 is 100 nM.
